US6462055B2, “Alpha-methylbenzyl-containing thiourea inhibitors of herpes viruses containing a phenylenediamine group” (Wyeth, priority 1998, dated 2002)
Converted amounts (≈) assume the structure as drawn.

Legend:
[1] = test system: HCMV recombinant mutant virus (RV145); assay: microbe, parasite or virus in culture; format: cell-based, human cytomegalovirus; conditions: for IC50: Human betaherpesvirus 5, read-out: IC50 ug/ml HCMV, HCMV
Outline: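 Human foreskin fibroblasts infected with HCMV RV145 carrying a viral-promoter-driven beta-glucuronidase gene, in presence of compound. At 96 h post-infection, lysates assayed for beta-glucuronidase with colorimetric or fluorogenic glucuronide substrate as replication read-out. IC50 estimated from varying inhibitor amounts.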

[2] = test system: VZV strain Ellen; assay: VZV Antiviral (ELISA) Assay in human foreskin fibroblast cells; format: cell-based, varicella-zoster virus; conditions: for inhibition at 10 µg/mL / IC50: Human alphaherpesvirus 3, Fibroblast; for inhibition at 10 µg/mL: read-out: % inhibition 10 ug/ml VZV, 10 ug/ml; for IC50: read-out: IC50 (ug/ml) VZV
Outline: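 First, fibroblasts are infected at multiplicity below 0.1 and kept overnight. The harvested cell mixture then goes onto compound-containing wells for three days at 37° C. Finally, cells are fixed and viral gpII is measured by fluorogenic ELISA.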

[3] = test system: HSV-1; assay: HSV Antiviral (ELISA) Assay in Vero cells; format: cell-based, herpes simplex virus type 1; conditions: HSV-1, Vero cells; for IC50: Human alphaherpesvirus 1, read-out: IC50 (ug/ml) HSV
Outline: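 Viral replication was quantified by cell-fixed ELISA for HSV glycoprotein D, using a β-galactosidase reporter and fluorogenic umbelliferyl substrate, about 24 h after HSV-1 infection (MOI 0.006) of Vero cells. Compounds, at several concentrations, were added 30 min pre-infection. IC50 was derived from fluorescence relative to the compound-free signal.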

Molecule	IC50 ug/ml HCMV [1] [µg/mL]	IC50 (ug/ml) VZV [2] [µg/mL]	IC50 (ug/ml) HSV [3] [µg/mL]	IC50 [1] [µg/mL]	inhibition at 10 µg/mL [2] [%]	IC50 [2] [µg/mL]	IC50 [3] [µg/mL]	% inhibition 10 ug/ml VZV [2] [%]
O=C(Nc1ccc(NC(=S)NCCc2cccc(Cl)c2)cc1)c1ccccc1F [Example 563]	>0.5	9 (≈ 21 µM)	>10	–	–	–	–	–
CN1CCC(N(C)c2ccc(NC(=S)Nc3ccc(NC(=O)c4ccccc4F)cc3)cc2Cl)CC1 [Example 855, N-[4-(3-{3-Chloro-4-[methyl-(1-methyl-piperidin-4-yl)-amino]-phenyl}-thioureido)-phenyl]-2-fluoro-benzamide]	–	–	–	0.7 (≈ 1.33 µM)	52	> 10	2.5 (≈ 4.75 µM)	–
CN1CCC(N(C)c2ccc(NC(=S)Nc3ccc(NC(=O)c4c(F)cccc4F)cc3)cc2Cl)CC1 [Example 340]	0.25 (≈ 0.459 µM)	4 (≈ 7.35 µM)	3 (≈ 5.51 µM)	–	–	–	–	99
CN(C)c1ccc(NC(=S)Nc2ccc(NC(=O)c3c(F)cccc3F)cc2)cc1Cl [Example 348]	0.8 (≈ 1.74 µM)	8 (≈ 17.4 µM)	4 (≈ 8.68 µM)	–	–	–	–	95
COc1cc(OC)c(NC(=S)Nc2ccc(NC(=O)c3ccc(F)cc3F)cc2)cc1Cl [Example 188]	>10	>10	1.2 (≈ 2.51 µM)	–	–	–	–	22
O=C(Nc1ccc(NC(=S)Nc2ccc(OCC(F)(F)F)cc2OCC(F)(F)F)cc1)c1ccccc1F [Example 1010, N-(4-{3-[2,4-Bis-(2,2,2-trifluoro-ethoxy)-phenyl]-thioureido}-phenyl)-2-fluoro-benzamide]	–	–	–	> 10	–	> 10	> 10	–
O=C(Nc1ccc(NC(=S)NCCc2ccc(F)cc2)cc1)c1ccccc1F [Example 552]	>0.5	>10	>10	–	–	–	–	–
O=C(Nc1ccc(NC(=S)Nc2cc(Cl)cc(Cl)c2)cc1)c1ccccc1F [Example 934, N-{4-[3-(3,5-Dichloro-phenyl)-thioureido]-phenyl}-2-fluoro-benzamide]	–	–	–	> 10	18	> 10	> 10	–
Cc1cccc(C(C)NC(=S)Nc2ccc(NC(=O)c3ccccc3F)cc2)c1 (stereo not drawn) [Example 776]	0.9 (≈ 2.21 µM)	>7.5	>10	–	–	–	–	–
N-{4-[3-(3-Chloro-4-methoxy-phenyl)-thioureido]-phenyl}-4-methoxy-benzamide [Example 821]	1	>10	0.15	–	–	–	–	55
CC(NC(=S)Nc1ccc(NC(=O)c2ccccc2F)cc1)c1ccc(S(=O)(=O)N2CCCCC2)cc1 (stereo not drawn) [Example 1009]	>10	>10	>10	–	–	–	–	–
O=C(Nc1ccc(NC(=S)Nc2cc(Cl)ccc2Cl)cc1)c1ccccc1F [Example 931, N-{4-[3-(2,5-Dichloro-phenyl)-thioureido]-phenyl}-2-fluoro-benzamide]	–	–	–	> 10	51	> 10	4 (≈ 9.21 µM)	–
CC(NC(=S)Nc1ccc(NC(=O)c2ccccc2F)cc1)c1ccc2ccccc2c1 (stereo not drawn) [Example 799]	1.7 (≈ 3.83 µM)	>7.5	>10	–	–	–	–	–
O=C(Nc1ccc(NC(=S)Nc2ccc(Cl)c(Cl)c2)cc1)c1ccccc1F [Example 912, N-{4-[3-(3,4-Dichloro-phenyl)-thioureido]-phenyl}-2-fluoro-benzamide]	–	–	–	> 10	21	> 10	8 (≈ 18.4 µM)	–
CC(NC(=S)Nc1ccc(NC(=O)c2cnc3ccccc3c2)cc1)c1ccc(F)cc1 (stereo not drawn) [Example 988, Quinoline-3-carboxylic acid (4-{3-[1-(4-fluoro-phenyl)-ethyl]-thioureido}-phenyl)-amide]	–	–	–	> 10	–	3.4 (≈ 7.65 µM)	> 10	–
O=C(Nc1ccc(NC(=S)Nc2cccc(O)c2)cc1)c1ccccc1F [Example 475]	>10	>10	5 (≈ 13.1 µM)	–	–	–	–	28
CCOC(=O)Nc1ccc(NC(=S)Nc2ccc(NC(=O)c3ccccc3F)cc2)cc1Cl [Example 399]	1.5 (≈ 3.08 µM)	>10	>10	–	–	–	–	59
CC(NC(=S)Nc1ccc(NC(=O)c2ccccc2)cc1)c1ccc(F)cc1 (stereo not drawn) [Example 758]	–	–	–	> 10	–	> 10	> 10	–
O=C(Nc1ccc(NC(=S)NCc2cccc(Cl)c2)cc1)c1ccccc1F [Example 511]	>10	>10	>10	–	–	–	–	10
COc1cc(OC)c(NC(=S)Nc2ccc(NC(=O)c3ccccc3Cl)cc2)cc1Cl [Example 141]	6 (≈ 12.6 µM)	>10	0.25 (≈ 0.525 µM)	–	–	–	–	40
Cc1ccc(NC(=S)Nc2ccc(NC(=O)c3ccccc3F)cc2)cc1C(F)(F)F [Example 1003, 2-Fluoro-N-{4-[3-(4-methyl-3-trifluoromethyl-phenyl)-thioureido]-phenyl}-benzamide]	–	–	–	> 10	–	> 10	> 10	–
COc1cc(OC)c(NC(=S)Nc2ccc(NC(=O)c3ccccc3F)cc2Cl)cc1Cl [Example 355]	>10	>10	0.035 (≈ 0.0708 µM)	–	–	–	–	40
NNC(=O)c1cccc(NC(=S)Nc2ccc(NC(=O)c3ccccc3F)cc2)c1 [Example 463]	>10	>10	>10	–	–	–	–	19
COc1cc(OC)c(NC(=S)Nc2ccc(NC(=O)c3ccccc3SC)cc2)cc1Cl [Example 194]	>10	>10	1.5 (≈ 3.07 µM)	–	–	–	–	45
CCOC(=O)COc1cccc(C(=O)Nc2ccc(NC(=S)Nc3cc(Cl)c(OC)cc3OC)cc2)c1 [Example 221]	>10	>10	>10	–	–	–	–	17
COc1ccc(NC(=S)Nc2ccc(NC(=O)c3ccccc3F)cc2)cc1C(F)(F)F [Example 998, 2-Fluoro-N-{4-[3-(4-methoxy-3-trifluoromethyl-phenyl)-thioureido]-phenyl}-benzamide]	–	–	–	> 10	–	5 (≈ 10.8 µM)	3 (≈ 6.47 µM)	–
CN1CCC(N(C)c2ccc(NC(=S)Nc3ccc(NC(=O)c4c(F)cccc4F)cc3)cc2Cl)C1 (stereo not drawn) [Example 349]	1.2 (≈ 2.26 µM)	4 (≈ 7.55 µM)	5 (≈ 9.43 µM)	–	–	–	–	110
CC(NC(=S)Nc1ccc(NC(=O)c2nccc3ccccc23)cc1)c1cc2ccccc2o1 (stereo not drawn) [Example 977, Isoquinoline-1-carboxylic acid {4-[3-(1-benzofuran-2-yl-ethyl)-thioureido]-phenyl}-amide]	–	–	–	> 10	–	0.05 (≈ 0.107 µM)	> 10	–
CC(=O)c1cccc(NC(=S)Nc2ccc(NC(=O)c3ccccc3F)cc2)c1 [Example 965, N-{4-[3-(3-Acetyl-phenyl)-thioureido]-phenyl}-2-fluoro-benzamide]	–	–	–	> 10	12	> 10	5 (≈ 12.3 µM)	–
